This passage reports IC50 results from patent US12162888B2, “Carboxamides as ubiquitin-specific protease inhibitors” (Valo Early Discovery, Inc., priority 2018, dated 2024).

One assay has as its target T1, USP25 (USP25-His6, Boston Biochem E-546) (Homo sapiens, UniProt Q9UHP3).
T1 construct: His6 (C); purchased Boston Biochem E-546
T1 sequence (Q9UHP3 1-1055): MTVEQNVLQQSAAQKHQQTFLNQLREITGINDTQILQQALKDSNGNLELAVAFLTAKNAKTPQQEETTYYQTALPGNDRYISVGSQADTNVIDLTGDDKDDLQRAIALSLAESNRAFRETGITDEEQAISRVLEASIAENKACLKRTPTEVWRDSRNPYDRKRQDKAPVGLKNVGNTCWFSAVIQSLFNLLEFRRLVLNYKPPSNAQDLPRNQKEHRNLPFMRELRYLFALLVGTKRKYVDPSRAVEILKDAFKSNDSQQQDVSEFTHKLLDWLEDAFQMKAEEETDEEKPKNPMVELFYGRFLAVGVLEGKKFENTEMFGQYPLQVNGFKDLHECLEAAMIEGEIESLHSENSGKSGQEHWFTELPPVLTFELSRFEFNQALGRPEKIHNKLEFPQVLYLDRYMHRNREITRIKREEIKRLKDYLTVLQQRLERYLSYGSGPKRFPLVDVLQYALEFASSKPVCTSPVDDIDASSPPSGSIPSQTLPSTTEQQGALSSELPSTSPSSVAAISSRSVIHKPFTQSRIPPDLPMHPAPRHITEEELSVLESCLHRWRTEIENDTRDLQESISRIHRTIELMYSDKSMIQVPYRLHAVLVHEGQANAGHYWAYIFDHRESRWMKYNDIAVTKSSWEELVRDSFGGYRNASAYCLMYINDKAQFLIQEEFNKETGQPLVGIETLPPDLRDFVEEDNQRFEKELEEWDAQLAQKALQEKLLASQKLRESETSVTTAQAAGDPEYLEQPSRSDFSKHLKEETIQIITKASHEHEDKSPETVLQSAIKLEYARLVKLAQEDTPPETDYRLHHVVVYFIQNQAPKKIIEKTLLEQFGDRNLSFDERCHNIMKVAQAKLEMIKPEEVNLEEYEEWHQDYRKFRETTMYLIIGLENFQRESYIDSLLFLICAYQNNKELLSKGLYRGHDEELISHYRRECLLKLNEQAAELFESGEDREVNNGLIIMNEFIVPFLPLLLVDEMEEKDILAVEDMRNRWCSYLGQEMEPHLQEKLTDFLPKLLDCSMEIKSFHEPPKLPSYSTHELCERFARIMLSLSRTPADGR
Put plainly: Ubiquitin-Rhodamine 110 Assay for USP25 Activity, Example A-3. It is filed as biochemical. The note with it: Ubiquitin-Rhodamine 110 assay, Example A-3; read-out: USP25 A-3 IC50 range. The method, boiled down:
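USP25-His6 ([…] final as stated) preincubated 30 min with compound (10-point, 25 μM to 1.3 nM), then Ub-Rh110 at 25 nM (<<Km) added in pH 8.0 Tris buffer with BME, BGG and Triton X-100. Reaction stopped after 45 min at room temperature with 10 mM citric acid; fluorescence read at 485/535 nm.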
In the case of `[2H]C1([2H])c2c(F)cc(N3CCNCC3)cc2OC[C@H]1NC(=O)c1sc2nc(C)ccc2c1N` (single isomer, unassigned) [Example 33-2], the IC50 was > 2000 nM. For `Cc1nc2sc(C(=O)N[C@@H]3CCc4cc(N5CCNCC5)ccc4C3)c(N)c2s1` (single isomer, unassigned) [Example 11-34], the IC50 is > 2000 nM. On to `Cc1ccc2c(N)c(C(=O)N[C@H]3COc4cc(N5CCNCC5)ccc4[C@H]3C)sc2n1` (single isomer, unassigned) [Example 11-15], for which the IC50 was > 2000 nM.

For the compound `CN[C@H]1CCN(c2ccc3c(c2)CC[C@@H](NC(=O)c2sc4nc(C)cnc4c2N)C3)C1` (single isomer, unassigned) [Example 11-26], the IC50 was > 2000 nM. On to `Cc1ccc2c(N)c(C(=O)N[C@@H]3CCc4c(C#N)c(N5CC6CCC(C5)N6)cc(F)c4C3)sc2n1` (single isomer, unassigned) [Example 14-18], for which the IC50 is > 2000 nM. As to `Cc1cnc2c(N)c(C(=O)N[C@@H]3CCc4c(C#N)c(N5CCNCC5)cc(F)c4C3)sc2n1` (single isomer, unassigned) [Example 14-11], the IC50 was 200 to 2000 nM. The same measure, in the same setting: the same measure for `CN[C@H]1CCN(c2ccc3c(c2)CC[C@H](NC(=O)c2sc4nc(C)cnc4c2N)C3)C1` (single isomer, unassigned) [Example 11-25]: 200 to 2000 nM; for `Cc1ccc2c(N)c(C(=O)N[C@H]3CCc4cc(N5CCNCC5)ccc4C3)sc2n1` (single isomer, unassigned) [Example 11-21]: > 2000 nM; for `Cc1ccc2c(N)c(C(=O)N[C@H]3CCc4c(C#N)c(N5CC6CNCC(C5)O6)cc(F)c4C3)sc2n1` (single isomer, unassigned) [Example 14-15]: 1 to 50 nM. Regarding `Cc1nc2sc(C(=O)N[C@@H]3CCc4c(C#N)c(N5CCNCC5)cc(F)c4C3)c(N)c2s1` (single isomer, unassigned) [Example 14-13], the IC50 is > 2000 nM.

Take `Cc1ccc2c(N)c(C(=O)N[C@@H]3CCc4c(C#N)c(N5CC6CNCC(C5)O6)cc(F)c4C3)sc2n1` (single isomer, unassigned) [Example 14-16]: the IC50 was 200 to 2000 nM. In the case of `Cc1cnc2c(N)c(C(=O)N[C@H]3CCc4cc(N5CCNCC5)ccc4C3)sc2n1` (single isomer, unassigned) [Example 11-19], the IC50 is 200 to 2000 nM. Regarding `CN[C@@H]1CCN(c2ccc3c(c2)CC[C@@H](NC(=O)c2sc4nc(C)cnc4c2N)C3)C1` (single isomer, unassigned) [Example 11-28], the IC50 was > 2000 nM.

For `Cc1ccc2c(N)c(C(=O)N[C@@H]3CCc4nc(N5C[C@@H](CF)[C@@H](N)C5)ncc4C3)sc2n1` [Example 445, 3-amino-N-[(6R)-2-[(3R,4R)-3-amino-4-(fluoromethyl)pyrrolidin-1-yl]-5,6,7,8-tetrahydroquinazolin-6-yl]-6-methylthieno[2,3-b]pyridine-2-carboxamide], the IC50 was > 2000 nM. Turning to `CO[C@H]1CN(c2ccc3c(c2)OC[C@H](NC(=O)c2sc4nc(C)sc4c2N)C3)CC1N` (stereo partly drawn) [Example 118, 6-amino-N-[(3R)-7-[(3,4S)-3-amino-4-methoxypyrrolidin-1-yl]-3,4-dihydro-2H-1-benzopyran-3-yl]-2-methylthieno[2,3-d][1,3]thiazole-5-carboxamide], the IC50 lay in the range of 200 to 2000 nM. As for `Cc1cnc2c(N)c(C(=O)N[C@@H]3CCc4cc(N5C[C@H]6C[C@@H]5CN6)ccc4C3)sc2n1` (single isomer, unassigned) [Example 11-32], the IC50 lay within 200 to 2000 nM. As to `Cc1ccc2c(N)c(C(=O)N[C@H]3COc4cc(N5CCNCC5)ccc4[C@@H]3C)sc2n1` (single isomer, unassigned) [Example 11-17], the IC50 was > 2000 nM. On the same count and under the same terms, as for `Cc1cnc2c(N)c(C(=O)N[C@H]3CCc4cc(N5CCNCC5)cc(F)c4C3)sc2n1` (single isomer, unassigned) [Example 11-38], the figure is 200 to 2000 nM; as for `Cc1ccc2c(N)c(C(=O)N[C@@H]3CCc4cc(N5CC6CNCC(C5)O6)cc(F)c4C3)sc2n1` (single isomer, unassigned) [Example 11-40], 50 to 200 nM.

`Cc1cnc2c(N)c(C(=O)N[C@H]3CCc4c(C#N)c(N5CCNCC5)cc(F)c4C3)sc2n1` (single isomer, unassigned) [Example 14-12]: the IC50 was > 2000 nM.

`Cc1ccc2c(N)c(C(=O)N[C@H]3COc4cc(N5C[C@H](N)[C@@]6(CCOC6)C5)ccc4C3)sc2n1` (single isomer, unassigned) [Example 439]: the IC50 lay within 200 to 2000 nM.

In the case of `CN[C@@H]1CN(c2ccc3c(n2)CC[C@H](NC(=O)c2sc4nc(C)ccc4c2N)C3)C[C@@H]1CF` [Example 442, 3-amino-N-[(6S)-2-[(3S,4S)-3-(fluoromethyl)-4-(methylamino)pyrrolidin-1-yl]-5,6,7,8-tetrahydroquinolin-6-yl]-6-methylthieno[2,3-b]pyridine-2-carboxamide], the IC50 was > 2000 nM.

`Cc1ccc2c(N)c(C(=O)N[C@@H]3CCc4c(C#N)c(N5CCNCC5)cc(F)c4C3)sc2n1` (single isomer, unassigned) [Example 14-9]: the IC50 is > 2000 nM. Regarding `Cc1cnc2c(N)c(C(=O)N[C@H]3CCc4c(ccc(N5CCNCC5)c4F)C3)sc2n1` (single isomer, unassigned) [Example 21-10], the IC50 was > 2000 nM. Consider `Cc1ccc2c(N)c(C(=O)N[C@@H]3COc4cc(N5CCNCC5)ccc4[C@@H]3C)sc2n1` (single isomer, unassigned) [Example 11-18], for which the IC50 was 200 to 2000 nM. In the case of `Cc1cnc2c(N)c(C(=O)N[C@H]3CCc4cc(N5C[C@@H]6C[C@H]5CN6)ccc4C3)sc2n1` (single isomer, unassigned) [Example 11-29], the IC50 fell in the range of 200 to 2000 nM. For `Cc1ccc2c(N)c(C(=O)N[C@H]3CCc4c(F)c(N5CC6CCC(C5)N6)cc(F)c4C3)sc2n1` (single isomer, unassigned) [Example 22-5], the IC50 lay within 1 to 50 nM.

Still in this assay, the particulars now being: biochemical IC50 range, Ubiquitin-Rhodamine 110 assay, Example A-3; read-out: USP25 A-3.
`CO[C@H]1CN(c2ccc3c(c2)CC[C@H](NC(=O)c2sc4nc(C)ccc4c2N)C3)C[C@H]1N` [Example 144, 3-amino-N-[(2S)-6-[(3R,4S)-3-amino-4-methoxypyrrolidin-1-yl]-1,2,3,4-tetrahydronaphthalen-2-yl]-6-methylthieno[2,3-b]pyridine-2-carboxamide]: the IC50 fell in the range of 200 to 2000 nM.

As to `Cc1ccc2c(N)c(C(=O)N[C@H]3CCc4cc(N5C[C@H](CF)[C@H](N)C5)ccc4C3)sc2n1` [Example 657, 3-amino-N-[(2S)-6-[(3S,4S)-3-amino-4-(fluoromethyl)pyrrolidin-1-yl]-1,2,3,4-tetrahydronaphthalen-2-yl]-6-methylthieno[2,3-b]pyridine-2-carboxamide], the IC50 lay in the range of 200 to 2000 nM. With `Cc1ccc2c(N)c(C(=O)N[C@H]3COc4cc(N5C[C@@H]6CCNC[C@@H]65)cc(F)c4C3)sc2n1` [Example 665, 3-amino-N-[(3R)-7-[(1R,6S)-3,8-diazabicyclo[4.2.0]octan-8-yl]-5-fluoro-3,4-dihydro-2H-1-benzopyran-3-yl]-6-methylthieno[2,3-b]pyridine-2-carboxamide], the IC50 lay in the range of 50 to 200 nM. Still for that read-out and setting: the same measure for `Cc1ccc2c(N)c(C(=O)N[C@H]3COc4cc(N5C[C@H](N)[C@@](C)(CF)C5)ccc4C3)sc2n1` [Example 659, 3-amino-N-[(3R)-7-[(3S,4R)-4-amino-3-(fluoromethyl)-3-methylpyrrolidin-1-yl]-3,4-dihydro-2H-1-benzopyran-3-yl]-6-methylthieno[2,3-b]pyridine-2-carboxamide]: 50 to 200 nM.

`CN[C@@H]1CN(c2ccc3c(c2)OC[C@H](NC(=O)c2sc4nc(C)ccc4c2N)C3)C[C@H]1CF` [Example 663, 3-amino-N-[(3R)-7-[(3R,4S)-3-(fluoromethyl)-4-(methylamino)pyrrolidin-1-yl]-3,4-dihydro-2H-1-benzopyran-3-yl]-6-methylthieno[2,3-b]pyridine-2-carboxamide]: the IC50 was in the range of 50 to 200 nM. For `Cc1ccc2c(N)c(C(=O)N[C@H]3COc4cc(N5C[C@@H](N)[C@@](C)(CF)C5)ccc4C3)sc2n1` [Example 660, 3-amino-N-[(3R)-7-[(3S,4S)-4-amino-3-(fluoromethyl)-3-methylpyrrolidin-1-yl]-3,4-dihydro-2H-1-benzopyran-3-yl]-6-methylthieno[2,3-b]pyridine-2-carboxamide], the IC50 lay within 1 to 50 nM.
